The values that follow come from ChEMBL document CHEMBL5465560, “Selectivity Literature for EUbOPEN Chemogenomic Library” (2024).

Bounds are passed on as bounds.

Data set [1] addresses Cyclin-dependent kinase 2 (Homo sapiens, UniProt P24941). Briefly: Selectivity interaction (Kinase panel (Invitrogen, enzymatic assay)) EUB0000623aCl CDK2.
Data set [2] concerns the target Epidermal growth factor receptor (Homo sapiens, UniProt P00533). Description: Selectivity interaction (Kinase panel (Invitrogen, enzymatic assay)) EUB0000623aCl EGFR.
The next data set deals with Ephrin type-A receptor 3 (Homo sapiens, UniProt P29320). Description: Selectivity interaction (Kinase panel (Invitrogen, enzymatic assay)) EUB0000623aCl EPHA3.
For data set [3], the target named is Receptor tyrosine-protein kinase erbB-4 (Homo sapiens, UniProt Q15303). Briefly: Selectivity interaction (Kinase panel (Invitrogen, enzymatic assay)) EUB0000623aCl ERBB4.
For data set [4], the target named is Glycogen synthase kinase-3 beta (Homo sapiens, UniProt P49841). Briefly: Selectivity interaction (Kinase panel (Invitrogen, enzymatic assay)) EUB0000623aCl GSK3B.
Data set [5] addresses Inhibitor of nuclear factor kappa-B kinase subunit beta (Homo sapiens, UniProt O14920). Briefly: Selectivity interaction (Kinase panel (Invitrogen, enzymatic assay)) EUB0000623aCl IKBKB.
The target in data set [6] is Mitogen-activated protein kinase kinase kinase 1 (Homo sapiens, UniProt Q13233). Description: Selectivity interaction (Kinase panel (Invitrogen, enzymatic assay)) EUB0000623aCl MAP3K1.
Data set [7] concerns the target Mitogen-activated protein kinase kinase kinase 7 (Homo sapiens, UniProt O43318). Briefly: Selectivity interaction (Kinase panel (Invitrogen, enzymatic assay)) EUB0000623aCl MAP3K7.
In data set [8] the target is T1, Mitogen-activated protein kinase 14 (Homo sapiens, UniProt Q16539). Briefly: (§1) Selectivity interaction (Kinase panel (Invitrogen, enzymatic assay)) EUB0000623aCl MAPK14.
Data set [9] addresses T1, Mitogen-activated protein kinase 14. The description is as §1. This is another data set of the same source.
For data set [10], the target named is Mitogen-activated protein kinase 3 (Homo sapiens, UniProt P27361). Briefly: Selectivity interaction (Kinase panel (Invitrogen, enzymatic assay)) EUB0000623aCl MAPK3.
The target in data set [11] is Mitogen-activated protein kinase 8 (Homo sapiens, UniProt P45983). Description: Selectivity interaction (Kinase panel (Invitrogen, enzymatic assay)) EUB0000623aCl MAPK8.
Data set [12] addresses Protein kinase C theta type (Homo sapiens, UniProt Q04759). Briefly: Selectivity interaction (Kinase panel (Invitrogen, enzymatic assay)) EUB0000623aCl PRKCQ.
For data set [13], the target named is Macrophage-stimulating protein receptor (Homo sapiens, UniProt Q04912). Description: Selectivity interaction (Kinase panel (Invitrogen, enzymatic assay)) EUB0000623aCl MST1R.
The target of data set [14] is Voltage-dependent L-type calcium channel subunit alpha-1C (Homo sapiens, UniProt Q13936). Description: Selectivity interaction (CEREP selectivity screen) EUB0000318b CACNA1C. As to conditions: at 10 µM.
Data set [15] has as its target T2, 4-aminobutyrate aminotransferase, mitochondrial (Homo sapiens, UniProt P80404). Description: (§2) Selectivity interaction (GPCR panel (PDSP screen)) EUB0000318b ABAT.
Data set [16] has as its target T2, 4-aminobutyrate aminotransferase, mitochondrial. The description is as §2. As to conditions: at 10 µM.
The target of data set [17] is 5-hydroxytryptamine receptor 2A (Homo sapiens, UniProt P28223). Briefly: Selectivity interaction (CEREP selectivity screen) EUB0000318b HTR2A. As to conditions: at 10 µM.
Data set [18] deals with T3, Mitogen-activated protein kinase kinase kinase 5 (Homo sapiens) (UniProt Q99683).
T3 sequence (whole entry): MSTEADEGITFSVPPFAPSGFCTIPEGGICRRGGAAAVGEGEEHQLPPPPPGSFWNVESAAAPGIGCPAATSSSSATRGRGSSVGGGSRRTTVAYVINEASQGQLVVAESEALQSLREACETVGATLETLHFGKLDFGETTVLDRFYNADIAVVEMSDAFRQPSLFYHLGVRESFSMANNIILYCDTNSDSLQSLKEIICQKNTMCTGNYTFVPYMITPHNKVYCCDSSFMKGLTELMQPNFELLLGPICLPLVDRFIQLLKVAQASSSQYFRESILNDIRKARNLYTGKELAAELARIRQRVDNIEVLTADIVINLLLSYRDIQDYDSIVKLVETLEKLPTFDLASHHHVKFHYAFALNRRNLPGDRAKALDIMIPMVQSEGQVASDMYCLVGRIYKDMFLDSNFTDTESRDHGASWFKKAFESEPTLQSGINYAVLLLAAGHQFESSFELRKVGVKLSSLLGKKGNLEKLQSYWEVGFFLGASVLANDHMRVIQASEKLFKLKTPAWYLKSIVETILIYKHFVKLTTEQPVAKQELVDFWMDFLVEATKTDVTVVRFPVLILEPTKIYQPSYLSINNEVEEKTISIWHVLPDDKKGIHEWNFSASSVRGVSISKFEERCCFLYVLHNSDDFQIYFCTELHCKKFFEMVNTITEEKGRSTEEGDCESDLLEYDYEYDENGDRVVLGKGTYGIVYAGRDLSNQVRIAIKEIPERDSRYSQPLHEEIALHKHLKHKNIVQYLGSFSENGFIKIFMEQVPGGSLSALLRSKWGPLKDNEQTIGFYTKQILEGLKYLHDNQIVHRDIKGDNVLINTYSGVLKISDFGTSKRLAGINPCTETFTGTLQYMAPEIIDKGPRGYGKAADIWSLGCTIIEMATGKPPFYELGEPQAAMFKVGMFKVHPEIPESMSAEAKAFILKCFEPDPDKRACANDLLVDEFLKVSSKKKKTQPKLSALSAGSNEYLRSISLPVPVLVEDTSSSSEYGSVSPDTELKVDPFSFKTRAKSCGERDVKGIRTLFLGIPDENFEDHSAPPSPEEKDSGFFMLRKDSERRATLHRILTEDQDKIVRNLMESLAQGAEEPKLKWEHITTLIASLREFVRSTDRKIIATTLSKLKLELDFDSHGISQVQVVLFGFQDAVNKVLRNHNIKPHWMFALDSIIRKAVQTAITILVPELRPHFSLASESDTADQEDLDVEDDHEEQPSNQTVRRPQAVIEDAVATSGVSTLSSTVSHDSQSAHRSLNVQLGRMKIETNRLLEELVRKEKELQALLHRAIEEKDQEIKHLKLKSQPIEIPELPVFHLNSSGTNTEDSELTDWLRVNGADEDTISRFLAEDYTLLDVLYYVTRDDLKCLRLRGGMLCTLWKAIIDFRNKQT
Briefly: Selectivity interaction (KinomeScan (DiscoverX)) EUB0000318b MAP3K5. As to conditions: at 1 µM.

For data set [19], the target named is T4, Serine/threonine-protein kinase Nek1 (Homo sapiens) (UniProt Q96PY6).
T4 sequence (whole entry): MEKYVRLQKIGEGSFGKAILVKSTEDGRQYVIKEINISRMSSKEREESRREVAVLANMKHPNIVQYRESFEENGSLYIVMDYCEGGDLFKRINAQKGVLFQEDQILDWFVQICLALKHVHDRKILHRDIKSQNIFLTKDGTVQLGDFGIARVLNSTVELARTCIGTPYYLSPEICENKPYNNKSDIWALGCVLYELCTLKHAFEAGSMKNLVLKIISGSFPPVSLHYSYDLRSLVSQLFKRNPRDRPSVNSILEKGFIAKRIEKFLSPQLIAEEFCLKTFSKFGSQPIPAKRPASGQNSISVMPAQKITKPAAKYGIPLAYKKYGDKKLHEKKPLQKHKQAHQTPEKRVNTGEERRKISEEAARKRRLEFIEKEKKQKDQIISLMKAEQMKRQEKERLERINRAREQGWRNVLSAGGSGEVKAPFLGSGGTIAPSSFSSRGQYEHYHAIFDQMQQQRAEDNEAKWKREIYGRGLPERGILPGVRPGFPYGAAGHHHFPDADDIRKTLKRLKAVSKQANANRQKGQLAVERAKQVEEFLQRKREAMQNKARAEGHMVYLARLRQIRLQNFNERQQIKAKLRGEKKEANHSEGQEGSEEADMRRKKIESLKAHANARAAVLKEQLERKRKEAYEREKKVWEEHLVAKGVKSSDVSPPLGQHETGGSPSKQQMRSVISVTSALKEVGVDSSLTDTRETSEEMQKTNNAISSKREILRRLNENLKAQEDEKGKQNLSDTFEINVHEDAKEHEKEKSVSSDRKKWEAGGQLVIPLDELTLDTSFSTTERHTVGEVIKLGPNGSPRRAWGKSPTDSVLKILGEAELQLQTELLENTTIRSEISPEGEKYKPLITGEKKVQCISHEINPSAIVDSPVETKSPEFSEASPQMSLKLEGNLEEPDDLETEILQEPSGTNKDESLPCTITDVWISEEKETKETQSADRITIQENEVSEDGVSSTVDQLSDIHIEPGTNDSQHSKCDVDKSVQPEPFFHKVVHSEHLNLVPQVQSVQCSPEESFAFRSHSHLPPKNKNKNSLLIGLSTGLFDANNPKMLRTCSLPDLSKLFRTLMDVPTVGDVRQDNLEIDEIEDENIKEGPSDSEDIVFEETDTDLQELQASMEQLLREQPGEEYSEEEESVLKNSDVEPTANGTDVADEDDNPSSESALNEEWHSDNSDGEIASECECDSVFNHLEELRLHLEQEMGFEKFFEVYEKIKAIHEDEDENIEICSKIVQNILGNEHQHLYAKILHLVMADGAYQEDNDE
Briefly: Selectivity interaction (KinomeScan (DiscoverX)) EUB0000318b NEK1. As to conditions: at 1 µM.

Data set [20] has as its target Sodium channel regulatory subunit beta-1 (Homo sapiens) (UniProt Q07699). Briefly: Selectivity interaction (CEREP selectivity screen) EUB0000318b SCN1B. As to conditions: at 10 µM.
Data set [21] concerns the target Sigma non-opioid intracellular receptor 1 (Homo sapiens) (UniProt Q99720). Description: Selectivity interaction (GPCR panel (PDSP screen)) EUB0000318b SIGMAR1. As to conditions: at 10 µM.
For data set [22], the target named is Sodium-dependent noradrenaline transporter (Homo sapiens, UniProt P23975). Briefly: Selectivity interaction (CEREP selectivity screen) EUB0000318b SLC6A2. As to conditions: at 10 µM.
Sequence of Sodium-dependent noradrenaline transporter (P23975 whole entry): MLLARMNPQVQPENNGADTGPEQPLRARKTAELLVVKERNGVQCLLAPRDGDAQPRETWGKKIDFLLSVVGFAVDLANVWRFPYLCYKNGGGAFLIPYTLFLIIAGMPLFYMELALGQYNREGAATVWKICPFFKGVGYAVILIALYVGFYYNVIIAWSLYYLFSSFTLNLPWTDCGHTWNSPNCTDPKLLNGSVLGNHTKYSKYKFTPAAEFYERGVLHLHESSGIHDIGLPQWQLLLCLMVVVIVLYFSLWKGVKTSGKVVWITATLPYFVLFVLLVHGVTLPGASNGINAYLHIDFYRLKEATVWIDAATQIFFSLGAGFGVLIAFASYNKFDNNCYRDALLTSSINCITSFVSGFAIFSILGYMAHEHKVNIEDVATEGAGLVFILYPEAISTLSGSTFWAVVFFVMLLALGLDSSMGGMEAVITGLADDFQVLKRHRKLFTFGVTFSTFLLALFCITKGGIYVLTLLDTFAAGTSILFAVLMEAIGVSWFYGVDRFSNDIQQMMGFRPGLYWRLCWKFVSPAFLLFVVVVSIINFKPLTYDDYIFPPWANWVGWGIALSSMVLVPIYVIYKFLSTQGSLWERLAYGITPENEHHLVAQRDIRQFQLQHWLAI

T1 sequence (Q16539 whole entry): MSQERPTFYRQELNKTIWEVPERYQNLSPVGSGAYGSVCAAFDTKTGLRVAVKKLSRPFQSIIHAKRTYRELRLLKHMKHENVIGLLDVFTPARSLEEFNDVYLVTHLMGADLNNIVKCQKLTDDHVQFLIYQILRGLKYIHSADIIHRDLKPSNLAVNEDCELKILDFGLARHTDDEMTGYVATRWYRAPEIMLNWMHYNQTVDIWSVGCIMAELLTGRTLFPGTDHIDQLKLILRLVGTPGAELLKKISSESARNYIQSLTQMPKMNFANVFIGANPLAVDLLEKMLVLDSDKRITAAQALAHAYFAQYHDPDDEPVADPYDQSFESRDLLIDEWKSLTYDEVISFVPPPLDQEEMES
T2 sequence (P80404 whole entry): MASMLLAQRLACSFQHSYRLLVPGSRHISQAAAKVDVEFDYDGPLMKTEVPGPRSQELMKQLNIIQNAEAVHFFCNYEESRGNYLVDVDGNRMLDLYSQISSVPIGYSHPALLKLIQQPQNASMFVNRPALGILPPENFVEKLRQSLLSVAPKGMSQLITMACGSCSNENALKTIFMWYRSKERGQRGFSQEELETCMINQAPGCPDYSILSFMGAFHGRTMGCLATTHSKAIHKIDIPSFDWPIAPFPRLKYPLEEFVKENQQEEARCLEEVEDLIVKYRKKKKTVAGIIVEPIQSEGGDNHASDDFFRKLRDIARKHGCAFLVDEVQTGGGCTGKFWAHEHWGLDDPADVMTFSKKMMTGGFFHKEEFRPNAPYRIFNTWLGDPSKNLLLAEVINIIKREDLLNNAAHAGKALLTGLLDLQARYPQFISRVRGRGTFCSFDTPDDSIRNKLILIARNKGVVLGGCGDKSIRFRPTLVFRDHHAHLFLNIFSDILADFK
Sequence of Mitogen-activated protein kinase kinase kinase 7 (O43318 whole entry): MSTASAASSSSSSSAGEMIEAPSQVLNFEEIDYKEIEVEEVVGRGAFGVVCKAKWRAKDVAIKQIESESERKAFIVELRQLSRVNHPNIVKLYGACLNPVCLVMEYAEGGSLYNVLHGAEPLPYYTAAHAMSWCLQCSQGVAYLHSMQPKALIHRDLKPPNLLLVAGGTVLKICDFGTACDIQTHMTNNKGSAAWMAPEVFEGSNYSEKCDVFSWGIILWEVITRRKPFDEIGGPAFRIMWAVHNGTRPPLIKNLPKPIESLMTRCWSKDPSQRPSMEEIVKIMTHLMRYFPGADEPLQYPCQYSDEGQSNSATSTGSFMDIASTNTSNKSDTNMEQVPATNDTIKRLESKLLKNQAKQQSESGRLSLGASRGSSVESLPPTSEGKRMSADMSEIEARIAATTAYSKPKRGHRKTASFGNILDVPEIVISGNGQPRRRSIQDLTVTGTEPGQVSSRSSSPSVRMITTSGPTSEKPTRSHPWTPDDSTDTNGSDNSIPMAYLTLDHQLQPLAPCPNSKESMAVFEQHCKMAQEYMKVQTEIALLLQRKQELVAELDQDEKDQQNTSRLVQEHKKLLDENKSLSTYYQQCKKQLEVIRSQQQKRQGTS
Sequence of Glycogen synthase kinase-3 beta (P49841 whole entry): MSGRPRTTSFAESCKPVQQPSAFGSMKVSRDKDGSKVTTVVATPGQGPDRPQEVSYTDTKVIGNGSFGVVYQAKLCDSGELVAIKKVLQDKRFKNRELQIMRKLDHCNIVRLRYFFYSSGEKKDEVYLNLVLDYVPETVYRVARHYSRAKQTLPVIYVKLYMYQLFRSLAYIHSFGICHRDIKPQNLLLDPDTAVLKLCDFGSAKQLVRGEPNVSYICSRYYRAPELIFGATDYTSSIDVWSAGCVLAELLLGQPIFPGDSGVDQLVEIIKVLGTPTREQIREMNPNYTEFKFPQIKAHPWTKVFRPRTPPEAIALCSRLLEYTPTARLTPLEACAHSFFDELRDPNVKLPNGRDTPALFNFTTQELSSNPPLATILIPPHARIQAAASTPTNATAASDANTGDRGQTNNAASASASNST
Sequence of Inhibitor of nuclear factor kappa-B kinase subunit beta (O14920 whole entry): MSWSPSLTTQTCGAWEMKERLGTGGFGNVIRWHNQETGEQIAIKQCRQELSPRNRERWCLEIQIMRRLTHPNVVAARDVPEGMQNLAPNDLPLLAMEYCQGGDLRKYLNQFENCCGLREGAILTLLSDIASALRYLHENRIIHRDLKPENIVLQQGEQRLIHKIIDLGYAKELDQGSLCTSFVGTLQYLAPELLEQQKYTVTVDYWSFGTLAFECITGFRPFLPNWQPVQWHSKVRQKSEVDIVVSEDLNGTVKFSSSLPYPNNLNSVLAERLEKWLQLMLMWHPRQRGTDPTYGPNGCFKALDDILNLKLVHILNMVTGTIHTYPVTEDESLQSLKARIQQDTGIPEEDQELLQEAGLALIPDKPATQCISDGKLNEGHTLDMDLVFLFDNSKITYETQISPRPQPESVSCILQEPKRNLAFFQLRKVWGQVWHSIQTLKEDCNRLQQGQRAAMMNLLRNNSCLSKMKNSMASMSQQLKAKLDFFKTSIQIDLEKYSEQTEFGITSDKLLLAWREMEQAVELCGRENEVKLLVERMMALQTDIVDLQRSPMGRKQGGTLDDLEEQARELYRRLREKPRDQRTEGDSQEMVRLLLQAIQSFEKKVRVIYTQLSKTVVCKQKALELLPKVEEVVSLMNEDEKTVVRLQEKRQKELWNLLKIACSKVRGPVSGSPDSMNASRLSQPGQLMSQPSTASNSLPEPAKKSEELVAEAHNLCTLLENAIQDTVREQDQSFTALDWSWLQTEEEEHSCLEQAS
Sequence of Epidermal growth factor receptor (P00533 whole entry): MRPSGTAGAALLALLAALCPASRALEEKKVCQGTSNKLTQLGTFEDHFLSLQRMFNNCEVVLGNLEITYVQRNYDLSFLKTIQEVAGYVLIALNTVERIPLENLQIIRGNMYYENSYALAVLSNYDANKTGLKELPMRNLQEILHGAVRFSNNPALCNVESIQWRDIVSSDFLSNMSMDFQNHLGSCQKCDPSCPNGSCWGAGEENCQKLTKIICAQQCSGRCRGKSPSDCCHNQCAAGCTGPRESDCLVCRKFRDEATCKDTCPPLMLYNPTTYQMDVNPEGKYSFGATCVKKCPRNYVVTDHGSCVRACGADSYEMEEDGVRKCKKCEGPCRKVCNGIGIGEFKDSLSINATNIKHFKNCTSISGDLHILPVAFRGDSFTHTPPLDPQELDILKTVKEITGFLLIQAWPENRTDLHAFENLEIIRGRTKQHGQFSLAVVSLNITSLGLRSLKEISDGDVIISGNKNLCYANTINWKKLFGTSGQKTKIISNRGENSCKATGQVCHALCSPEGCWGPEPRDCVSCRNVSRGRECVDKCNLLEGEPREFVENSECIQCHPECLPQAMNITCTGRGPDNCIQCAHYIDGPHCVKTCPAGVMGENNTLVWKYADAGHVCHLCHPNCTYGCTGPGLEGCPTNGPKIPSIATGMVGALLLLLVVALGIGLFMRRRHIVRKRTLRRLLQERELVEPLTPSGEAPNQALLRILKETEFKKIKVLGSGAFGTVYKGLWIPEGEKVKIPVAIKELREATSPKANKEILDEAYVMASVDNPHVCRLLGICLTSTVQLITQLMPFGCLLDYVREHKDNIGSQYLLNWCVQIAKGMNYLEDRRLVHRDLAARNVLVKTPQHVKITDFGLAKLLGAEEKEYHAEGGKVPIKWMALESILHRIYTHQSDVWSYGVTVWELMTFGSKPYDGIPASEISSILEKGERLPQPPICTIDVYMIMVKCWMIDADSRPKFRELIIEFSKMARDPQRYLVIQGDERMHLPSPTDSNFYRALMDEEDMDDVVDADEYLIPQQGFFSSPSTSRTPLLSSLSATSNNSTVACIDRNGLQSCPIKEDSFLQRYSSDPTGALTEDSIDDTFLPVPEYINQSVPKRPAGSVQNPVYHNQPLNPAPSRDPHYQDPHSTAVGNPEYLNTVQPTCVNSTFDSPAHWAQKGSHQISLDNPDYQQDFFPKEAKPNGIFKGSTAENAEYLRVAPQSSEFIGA
Sequence of Sigma non-opioid intracellular receptor 1 (Homo sapiens) (Q99720 whole entry): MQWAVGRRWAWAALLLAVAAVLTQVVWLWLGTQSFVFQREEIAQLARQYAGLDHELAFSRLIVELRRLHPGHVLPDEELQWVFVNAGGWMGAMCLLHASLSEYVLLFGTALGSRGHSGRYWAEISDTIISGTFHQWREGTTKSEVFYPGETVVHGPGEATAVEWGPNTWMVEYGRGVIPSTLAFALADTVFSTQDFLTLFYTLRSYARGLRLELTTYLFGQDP
Sequence of Sodium channel regulatory subunit beta-1 (Homo sapiens) (Q07699 whole entry): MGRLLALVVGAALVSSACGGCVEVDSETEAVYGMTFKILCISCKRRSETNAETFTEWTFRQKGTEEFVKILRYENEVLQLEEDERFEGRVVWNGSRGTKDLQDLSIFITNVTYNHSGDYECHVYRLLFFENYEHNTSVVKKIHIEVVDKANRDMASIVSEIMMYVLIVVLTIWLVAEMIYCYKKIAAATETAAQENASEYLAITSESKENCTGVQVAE

For the compound `CC(C)(C)c1ccc(C(=O)Nc2cn3cc(-n4ccnc4)ccc3n2)cc1`, the IC50 in data set [1] was 0.158 µM; in [2] it was over 20 µM; on Ephrin type-A receptor 3, over 20 µM; in data set [3] it was over 20 µM; in data set [4], over 10 µM; in [5], over 10 µM. Further, the concentration for half-maximal inhibition (IC50) in data set [6] is over 10 µM; in data set [7] it was over 10 µM; in [8], over 10 µM; in data set [9], over 20 µM; in data set [10], over 10 µM; in data set [11], over 10 µM. The IC50 is over 10 µM in data set [12] and over 20 µM in data set [13].

Consider `O=C(NC[C@@H]1[C@H]2CN(C(=O)OCc3cc(C(F)(F)F)cc(C(F)(F)F)c3)C[C@@H]12)c1ccc2[nH]nnc2c1` [BI 2545], for which the “% of inhibition” value was 80% in [14]; 63.7% in data set [16]; 55% in data set [17]; 66% in data set [20]; 51.2% in data set [21]; 61% in data set [22]. Moreover, the inhibition constant Ki in data set [15] worked out at 2.56 µM. The figures for the % of control in [18] and in [19] were 13% and 44%, respectively.
